Converted amounts (≈) assume the structure as drawn. Blank lines part the entries; values can stand above or below the compound they belong to.
Experiments:
[1] = Singlet oxygen production assay (TEMP to TEMPO, EPR); conditions: 20 μM reactive dye, 50 mM TEMP, DPBS pH 7.4; free dye
[2] = room temperature; cited from earlier work
[3] = system: tumor cells; conditions: cited from earlier work
[4] = system: tumor lung colonization; conditions: mouse, in vivo; cited from earlier work
[5] = system: tumor angiogenesis; conditions: mice; cited from earlier work
[6] = system: platlets and neutrophils; conditions: cited from earlier work
[7] = Solubility (saturation); assay type: physicochemical; conditions: with 1% DMF, aqueous buffer, room temperature, solutions in which the protein cages are stable

Compound: O=C([O-])c1c(Cl)c(Cl)c(Cl)c(Cl)c1-c1c2cc(I)c(=O)c(I)c-2oc2c(I)c([O-])c(I)cc12.[Na+].[Na+] [Rose Bengal]
increase in the amount of TEMPO generated [1]: 4 fold

Compound: CC(=O)Oc1ccccc1C(=O)O [acetylsalicylic acid]
solubility (saturation) [2]: ~18500 µM (≈ 3330 µg/mL)

Compound: CDPGYIGSRC [peptide 11]
invasion of basement membranes by tumor cells [3]: effectively blocks invasion of basement membranes by tumor cells
experimental tumor lung colonization [4]: reduces experimental tumor lung colonization
tumor angiogenesis [5]: inhibits tumor angiogenesis in mice
toxic effect on platelets and neutrophils [6]: no toxic effect on these cells

solubility [7]: ~2 µM (≈ 1.09 µg/mL)
Compound: COc1cccc2c1C(=O)c1c(O)c3c(c(O)c1C2=O)C[C@@](O)(C(=O)CO)C[C@@H]3O[C@H]1C[C@H](N)[C@H](O)[C@H](C)O1 [doxorubicin]

solubility [7]: ~2 µM (≈ 0.665 µg/mL)
Compound: O=C1OC2(c3ccc(O)cc3Oc3cc(O)ccc32)c2ccccc21 [fluorescein]

— patent publication US20070258889A1, “NOVEL NANOPARTICLES AND USE THEREOF” (Montana State University, priority 2005, published 2007)
